One assay has as its target DPP-IV enzyme (Homo sapiens, UniProt P27487). The assay can be described thus: In vitro DPP-IV enzyme inhibition assay (Cayman Chemical kit, item 700210). The conditions noted are these: for inhibition at 250 µM: read-out: % Inhibition (at Conc.).
For the next assay, the system named is DPP-IV. The conditions noted are these: DPP-IV enzyme assay of coumarin; cited from earlier work.

Chain of DPP-IV enzyme (P27487 whole entry): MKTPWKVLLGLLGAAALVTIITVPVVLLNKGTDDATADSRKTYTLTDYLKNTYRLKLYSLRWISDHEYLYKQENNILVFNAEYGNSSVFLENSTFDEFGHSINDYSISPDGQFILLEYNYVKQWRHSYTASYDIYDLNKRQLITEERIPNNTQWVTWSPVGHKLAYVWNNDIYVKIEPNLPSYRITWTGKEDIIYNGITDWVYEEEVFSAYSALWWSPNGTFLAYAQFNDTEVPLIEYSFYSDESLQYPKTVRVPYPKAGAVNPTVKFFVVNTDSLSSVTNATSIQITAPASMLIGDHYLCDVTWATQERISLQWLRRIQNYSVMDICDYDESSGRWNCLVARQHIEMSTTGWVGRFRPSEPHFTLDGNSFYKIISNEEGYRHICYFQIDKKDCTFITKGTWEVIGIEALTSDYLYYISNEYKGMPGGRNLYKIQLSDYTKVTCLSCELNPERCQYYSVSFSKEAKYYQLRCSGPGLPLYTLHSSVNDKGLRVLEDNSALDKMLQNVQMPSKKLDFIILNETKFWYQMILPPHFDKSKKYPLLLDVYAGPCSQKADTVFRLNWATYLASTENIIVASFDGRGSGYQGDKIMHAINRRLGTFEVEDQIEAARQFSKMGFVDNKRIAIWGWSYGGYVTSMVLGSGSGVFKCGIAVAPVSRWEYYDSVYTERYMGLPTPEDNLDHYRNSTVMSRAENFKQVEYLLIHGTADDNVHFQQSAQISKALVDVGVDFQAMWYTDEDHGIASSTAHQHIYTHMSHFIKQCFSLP

Consider `O=c1oc2ccc(S(=O)(=O)Nc3ccccc3)cc2cc1Cl` [6a, 3-Chloro-2-oxo-2H-1-benzopyran-6-(N-phenyl)sulfonamide], for which, at DPP-IV enzyme, the IC50 was 14.5 ± 1.2 µM and the inhibition at 250 µM was determined as 93.5 ± 2.02%.

For `O=c1oc2ccc(S(=O)(=O)Nc3ccccn3)cc2cc1Cl` [6b, 3-Chloro-2-oxo-N-(pyridin-2-yl)-2H-chromene-6-sulfonamide], at DPP-IV enzyme, the IC50 is 15.7 ± 0.98 µM and the inhibition at 250 µM amounted to 91.15 ± 0.9%.

For the compound `O=c1oc2ccc(S(=O)(=O)Nc3cccnc3)cc2cc1Cl` [6c, 3-Chloro-2-oxo-N-(pyridin-3-yl)-2H-chromene-6-sulfonamide], on DPP-IV enzyme, the IC50 was found to be 16.3 ± 2.04 µM and the inhibition at 250 µM amounted to 90.3 ± 2.04%.

With `O=c1oc2ccc(S(=O)(=O)Nc3ccncc3)cc2cc1Cl` [6d, 3-Chloro-2-oxo-N-(pyridin-4-yl)-2H-chromene-6-sulfonamide], at DPP-IV enzyme, the half-maximal inhibitory concentration (IC50) turned out to be 15.2 ± 1.02 µM and the inhibition at 250 µM was 92.4 ± 1.11%.

In the case of `O=c1oc2ccc(S(=O)(=O)Nc3nc4ccccc4[nH]3)cc2cc1Cl` [6i, 3-Chloro-2-oxo-2H-1-benzopyran-6-(N-benzimidazole)sulfonamide], on DPP-IV enzyme, the IC50 was 11 ± 1 µM and the inhibition at 250 µM was determined as 95.8 ± 1.08%.

Take `Cc1ccc(NS(=O)(=O)c2ccc3oc(=O)c(Cl)cc3c2)cc1` [6r, 3-Chloro-2-oxo-N-(p-tolyl)-2H-chromene-6-sulfonamide]: at DPP-IV enzyme, the IC50 was 12.92 ± 0.11 µM and the inhibition at 250 µM stood at 95.4 ± 1.1%.

As for `Cc1ccccc1NS(=O)(=O)c1ccc2oc(=O)c(Cl)cc2c1` [6s, 3-Chloro-2-oxo-N-(o-tolyl)-2H-chromene-6-sulfonamide], at DPP-IV enzyme, inhibition was half-maximal at 18.29 ± 0.1 µM (IC50) and the inhibition at 250 µM amounted to 89.3 ± 0.9%.

With `O=c1oc2ccc(S(=O)(=O)NCc3ccccc3)cc2cc1Cl` [6t, N-benzyl-3-chloro-2-oxo-2H-chromene-6-sulfonamide], on DPP-IV enzyme, it took 17.73 ± 0.02 µM to reach half-maximal inhibition (IC50) and the inhibition at 250 µM was 88.3 ± 2.06%.

Turning to `O=c1ccc2ccccc2o1` [coumarin], the IC50 in the assay with DPP-IV is 54.8 µM.
